Article PMC9693145, “Optimization of Extraction Conditions and Cytotoxic Activity of Rapanone in Comparison to Its Homologue, Embelin” (Molecules, 2022)
pIC50: −log10 of the molar value. Values after ≈ are worked out from the molar mass of the structure shown. Read-outs that look alike come from different tables or passages of the source.

Experiments:
[1] = test system: PC3 grade IV prostate carcinoma; experiment: LDH cytotoxicity assay, PC3 cells; assay type: cell-based; settings: Homo sapiens
Description: (§1) In the study, […] human cancer and normal cell lines were used. They were grouped as follows: prostate panel (prostate carcinoma Du145, derived from the metastatic site: brain, ATCC HTB-81; grade IV prostate carcinoma, PC3, derived from the metastatic site: bone, ATCC CRL-1435; prostate epithelial cells PNT2, ECACC 95012613), gastrointestinal panel (colorectal adenocarcinomas Caco2, ATCC HTB-37, and HT29, ATCC HTB-38; hepatocellular carcinoma HepG2, ATCC HB-8065), thyroid panel (follicular thyroid carcinoma FTC133, ECACC 94060901; undifferentiated thyroid carcinoma 8505C, ECACC 94090184). Cells were grown at 37 °C in a 5% CO2 atmosphere, with relative humidity, with culture medium DMEM/F12 (PC3, PNT2, FTC133, 8505C, HT29, and HepG2), DMEM low glucose (Du145), MEM with NEAA (Caco-2), supplemented with 10% fetal bovine serum (FBS), and appropriate antibiotics. Cells were seeded in 96-well plates (1.5 × 10^4 cells/well) and kept for 24 and 48 h. Subsequently, the culture medium was replaced with a fresh medium containing different concentrations of the tested substances from 4 to 50 µg/mL and the cells were incubated for 24 and 48 h. As a reference drug, doxorubicin was used. Cell viability was examined using the LDH assay, as previously described. The absorbance was measured at 490 nm (the reference wavelength 600 nm) with a Biotek Synergy microplate reader. Each experiment was performed in triplicate. Cytotoxicity of the samples was measured using the formula: %cytotoxicity=Asample−Aspont/Amax−Aspont×100 where: • Asample is the absorbance value for cells treated with the tested substances • Aspont is the value for spontaneous LDH release • Amax the value in cells lysed in the presence of Triton X100 • The half-maximal effective concentration value IC50, defined as the substance concentration necessary to obtain 50% of dead cells, was determined.
(§2) In the study evaluating optimization extraction conditions, the outlying values of rapanone amount in each set of parameters were removed. Thirty-two outlier values were determined using “Extreme Outlier” software (MP System Co., Kraków, Poland), with an algorithm implemented by Shoemaker and based on a robust technique proposed by Tukey. The ANOVA procedure was used to assess the impact of changing individual parameters on the amount of rapanone obtained in various extraction systems. The same statistical procedure was used to determine the regression coefficients of the primary parameters in the respective multinomial models (describing the relationship between the amount of rapanone and the experimental conditions) and to establish the statistical significance of these coefficients. […] The results with the highest number of differences were chosen as representing the combinations of parameters, (i.e., the particular variants of experimental systems), that were used giving the highest efficacy of the extraction process. IC50 values in cytotoxicity analysis were estimated using GraphPad 5 Prism. A comparison of the means in a cytotoxicity analysis was performed using one-way ANOVA followed by a posthoc Tukey test.

[2] = test system: Caco-2 colorectal adenocarcinoma; experiment: LDH cytotoxicity assay, Caco-2 cells; assay type: cell-based, human; settings: for IC50: Homo sapiens
Description: as §1, §2

[3] = test system: undifferentiated thyroid carcinoma 8505C; experiment: LDH cytotoxicity assay, 8505C cells; assay type: cell-based; settings: Homo sapiens
Description: as §1, §2

Du145 prostate carcinoma = experiment: LDH cytotoxicity assay, Du145 cells; assay type: cell-based, human; settings: for mean percentage of dead Du145 cells: 10 μg/mL, 24 h of incubation; for IC50: Homo sapiens, DU-145, LDH assay
Description: as §1, §2

[4] = test system: PNT2 prostate epithelial cells; experiment: LDH cytotoxicity assay, PNT2 cells; assay type: cell-based, human; settings: for mean percentage of dead PNT2 cells: 10 μg/mL, 24 h of incubation; for IC50: Homo sapiens, PNT2 normal prostate epithelial cells, LDH assay
Description: as §1, §2

PC3 = settings: cited from earlier work
[5] = test system: HT29 colorectal adenocarcinoma; experiment: LDH cytotoxicity assay, HT29 cells; assay type: cell-based; settings: Homo sapiens
Description: as §1, §2

HT29 cells = settings: cited from earlier work
[6] = test system: follicular thyroid carcinoma FTC133; experiment: LDH cytotoxicity assay, FTC133 cells; assay type: cell-based; settings: Homo sapiens
Description: as §1
(§3) In the study evaluating optimization extraction conditions, the outlying values of rapanone amount in each set of parameters were removed. Thirty-two outlier values were determined using “Extreme Outlier” software (MP System Co., Kraków, Poland), with an algorithm implemented by Shoemaker and based on a robust technique proposed by Tukey. The ANOVA procedure was used to assess the impact of changing individual parameters on the amount of rapanone obtained in various extraction systems. The same statistical procedure was used to determine the regression coefficients of the primary parameters in the respective multinomial models (describing the relationship between the amount of rapanone and the experimental conditions) and to establish the statistical significance of these coefficients. […]

[7] = parameters: method as in PMID 26252009; settings: EZ-CyTox kit, cell line not stated, cited from earlier work
[8] = test system: HepG2 hepatocellular carcinoma; experiment: LDH cytotoxicity assay, HepG2 cells; assay type: cell-based; settings: Homo sapiens
Description: as §1, §3

Du145 = test system: Du145; parameters: method as in earlier work; settings: castration-resistant prostate cancer cells Du145; read-out: IC50 inhibition of proliferation, Du145; cited from earlier work
[9] = PC-3, PC3, 24 h incubation, read-out: IC50 PC3 24 h
[10] = Caco-2, 24 h, Caco-2, 24 h incubation, read-out: IC50 Caco-2 24 h
[11] = 24 h incubation, read-out: IC50 8505C 24 h
[12] = Du145, 24 h incubation, read-out: IC50 Du145 24 h
[13] = 24 h incubation, read-out: IC50 PNT2 24 h
[14] = HT-29, HT29, 24 h incubation, read-out: IC50 HT29 24 h
[15] = PC-3, PC3, 48 h incubation, read-out: IC50 PC3 48 h
[16] = FTC-133, FTC133, 24 h incubation, read-out: IC50 FTC133 24 h
[17] = FTC-133, FTC133, 48 h incubation, read-out: IC50 FTC133 48 h
[18] = Caco-2, 48 h, Caco-2, 48 h incubation, read-out: IC50 Caco-2 48 h
[19] = 48 h incubation, read-out: IC50 8505C 48 h
[20] = Du145, 48 h incubation, read-out: IC50 Du145 48 h
[21] = 48 h incubation, read-out: IC50 PNT2 48 h
[22] = HepG2, 24 h incubation, read-out: IC50 HepG2 24 h
[23] = HepG2, 48 h incubation, read-out: IC50 HepG2 48 h
[24] = HT-29, HT29, 48 h incubation, read-out: IC50 HT29 48 h

SMILES	IC50 [1, 9] [µg/mL]	IC50 [2, 10] [µg/mL]	IC50 [3, 11] [µg/mL]	mean percentage of dead Du145 cells (Du145 prostate carcinoma) [%]	IC50 (Du145 prostate carcinoma; [12]) [µg/mL]	mean percentage of dead PNT2 cells [4] [%]	IC50 [4, 13] [µg/mL]	IC50 [5, 14] [µg/mL]	IC50 [1, 15] [µg/mL]	IC50 [6, 16] [µg/mL]	IC50 [6, 17] [µg/mL]	IC50 [2, 18] [µg/mL]	IC50 [3, 19] [µg/mL]	IC50 (Du145 prostate carcinoma; [20]) [µg/mL]	IC50 [4, 21] [µg/mL]	IC50 [8, 22] [µg/mL]	IC50 [8, 23] [µg/mL]	IC50 [5, 24] [µg/mL]	further results
COc1cccc2c1C(=O)c1c(O)c3c(c(O)c1C2=O)C[C@@](O)(C(=O)CO)C[C@@H]3O[C@H]1C[C@H](N)[C@H](O)[C@H](C)O1 [Doxorubicin]	> 50	3.44	> 40	88.38	3.18	99.21	1.38	1.53	–	–	–	–	–	–	–	–	–	–	times lower activity towards PC3 than towards Du145 (PC3; doxorubicin, PC3 vs Du145): about 20
CCCCCCCCCCCC1=C(O)C(=O)C=C(O)C1=O [Embelin]	9.27	6.12	18.9	61.67	8.02	49.00	10.1	24.7	5.24	10.5	6.48	3.37	13.8	4.18	4.61	16	6.77	13.7	IC50 in HT29 cells (Sumalatha) (HT29 cells; HT29): 35 µg/mL (≈ 119 µM); pIC50 ([7]; 24 h, read-out: IC50 after 24 h (Park et al.)): < 3.70; pIC50 ([7]; 48 h, read-out: IC50 after 48 h (Park et al.)): 4.04; pIC50 (PC3; castration-resistant prostate cancer cells PC3, read-out: IC50 inhibition of proliferation, PC3): 4.87; pIC50 (Du145): 4.67
CCCCCCCCCCCCCC1=C(O)C(=O)C=C(O)C1=O [Rapanone]	6.5	8.76	7.84	82.33	7.68	9.30	16.7	16.9	4.92	6.01	4.42	5.66	5.5	5.07	12.7	36.3	16.7	11.7	IC50 reported by Cordero et al., converted (HT29 cells; HT29 (by context), 29.4 μM converted to μg/mL): 9.3 µg/mL (≈ 28.8 µM); pIC50 (HT29 cells; HT29 (by context), read-out: IC50 reported by Cordero et al.): 4.53; IC50 Caco-2 24 h ([2]; Caco-2, 24 h incubation): 8.79 µg/mL
